# Measurements published in US9322066B2, “Predictors for cancer treatment” (priority 2011, dated 2016).
# System: relapsed or refractory, rituximab-naive or -sensitive follicular B-cell NHL
# Assay: Time to progression (TTP), Vc-R vs rituximab study, by biomarker
# Assay type: in vivo, human
# Design: TTP Median: unit not given here
# From the text: Non-Hodgkin lymphoma (NHL) encompasses several unique malignant lymphoid disease entities that vary in clinical behavior, morphologic appearance, immunologic, and molecular phenotype. […] A randomized, open-label, active-controlled, multicenter, multinational, prospective study to compare the efficacy and safety of the combination of bortezomib and rituximab (Vc-R) to single-agent rituximab in subjects who have relapsed or refractory, rituximab-naive or -sensitive follicular B-cell NHL was performed.
# Subjects were centrally randomized to Treatment Groups A (Vc-R) or B (rituximab) in a 1:1 ratio taking into account the following stratification factors: • Follicular Lymphoma International Prognostic Index (FLIPI) score (low [0 or 1 factor], intermediate [2 factors], high [≧3 factors]); • Prior rituximab therapy (yes, no); • Time since last dose of anti-lymphoma therapy (≦1 year, >1 year); • Region (United States/Canada, European Union, Rest of World).
# For single-marker association analyses and pair-wise comparisons, a log rank test and Cox proportional hazard model was utilized for assessments of PFS, TTP, and OS between the treatment groups. Kaplan-Meier curves were utilized to estimate the distribution differences between groups in the time-to-event analyses. Comparison of the response rates between the treatment groups was conducted using the Fishers exact test. Single-marker association analyses were stratified by the covariates.
# For pair-wise comparison analysis, biomarker pairs were formed by combinations of two markers. A log rank test was utilized for assessments of PFS, TTP, and OS between the treatment groups in the subpopulation defined by biomarker pairs. Kaplan-Meier curves were utilized to estimate the distribution differences between groups in the time-to-event analyses. Comparison of the response rates between the treatment groups was conducted using the Fishers exact test. Methods of Analysis for the multiple biomarker comparison models can be found in section 4.6.
# [1] = PSMB1/I208N: T/T, Ann Arbor Stage IV, IRC review
# [2] = PSMB1/I208N: T/T, High Tumor Burden, IRC review
# [3] = PSMB1/I208N: T/T, ≦65 years old, IRC review
# [4] = PSMB1/P11A: C/G, Ann Arbor Stage IV, IRC review
# [5] = PSMB1/P11A: C/G, High Tumor Burden, IRC review
# [6] = PSMB1/P11A: C/G, ≦65 years old, IRC review
# [7] = PSMB1/P193L: C/C, Ann Arbor Stage IV, IRC review
# [8] = PSMB1/P193L: C/C, High Tumor Burden, IRC review
# [9] = PSMB1/P193L: C/C, ≦65 years old, IRC review
# [10] = PSMB2/E49X: G/G, Ann Arbor Stage IV, IRC review
# [11] = PSMB2/E49X: G/G, High Tumor Burden, IRC review
# [12] = PSMB2/E49X: G/G, ≦65 years old, IRC review
# [13] = PSMB2/G187V: G/G, Ann Arbor Stage IV, IRC review
# [14] = PSMB2/G187V: G/G, High Tumor Burden, IRC review
# [15] = PSMB2/G187V: G/G, ≦65 years old, IRC review
# [16] = PSMB2/L159F: C/C, Ann Arbor Stage IV, IRC review
# [17] = PSMB2/L159F: C/C, High Tumor Burden, IRC review
# [18] = PSMB2/L159F: C/C, ≦65 years old, IRC review
# [19] = PSMB5/L206M: C/C, Ann Arbor Stage IV, IRC review
# [20] = PSMB5/L206M: C/C, High Tumor Burden, IRC review
# [21] = PSMB5/L206M: C/C, ≦65 years old, IRC review
# [22] = PSMB5/R24C: C/C, ≦65 years old, IRC review
# [23] = PSMB5/R24C: C/T, 2 Prior Lines of Therapy, IRC review
# [24] = PSMB5/R24C: C/T, High Tumor Burden, IRC review
# [25] = PSMB6/A234D: C/C, Ann Arbor Stage IV, IRC review
# [26] = PSMB6/A234D: C/C, High Tumor Burden, IRC review
# [27] = PSMB6/A234D: C/C, ≦65 years old, IRC review
# [28] = PSMB6/P107A: C/C, Ann Arbor Stage IV, IRC review
# [29] = PSMB6/P107A: C/C, ≦65 years old, IRC review
# [30] = PSMB8/G8R: G/G, Ann Arbor Stage IV, IRC review
# [31] = PSMB8/G8R: G/G, High Tumor Burden, IRC review
# [32] = PSMB8/G8R: G/G, ≦65 years old, IRC review
# [33] = PSMB8/R141C: C/C, Ann Arbor Stage IV, IRC review
# [34] = PSMB8/R141C: C/C, High Tumor Burden, IRC review
# [35] = PSMB8/R141C: C/C, ≦65 years old, IRC review
# [36] = PSMB8/V182M: G/G, >1 year since last anti-lymphoma treatment, IRC review
# [37] = PSMB8/V182M: G/G, Ann Arbor Stage IV, IRC review
# [38] = PSMB8/V182M: G/G, High Tumor Burden, IRC review
# [39] = PSMB8/V182M: G/G, ≦65 years old, IRC review
# [40] = PSMB9/G9E: G/G, >1 year since last anti-lymphoma treatment, IRC review
# [41] = PSMB9/G9E: G/G, Ann Arbor Stage IV, IRC review
# [42] = PSMB9/G9E: G/G, High Tumor Burden, IRC review
# [43] = PSMB9/G9E: G/G, ≦65 years old, IRC review
# [44] = PSMB9/R60H: A/G, Male, IRC review
# [45] = PSMB9/R60H: G/G, ≦65 years old, IRC review
# [46] = PSMB9/V32I: C/C, >1 year since last anti-lymphoma treatment, IRC review
# [47] = PSMB9/V32I: C/C, Ann Arbor Stage IV, IRC review
# [48] = PSMB9/V32I: C/C, No Subgroup, IRC review
# [49] = PSMB9/V32I: C/C, ≦65 years old, IRC review
substance,measurement,setting,value
rituximab,TTP Median,"PSMB1/A171S: G/G, ≦65 years old, IRC review",326
same,TTP Evt/N,[1],95/127
same,TTP Median,[1],278
same,TTP Evt/N,[2],110/147
same,TTP Median,[2],273
same,TTP Evt/N,[3],131/198
same,TTP Median,[3],326
same,TTP Evt/N,[4],46/59
same,TTP Median,[4],235
same,TTP Evt/N,[5],52/72
same,TTP Median,[5],253
same,TTP Evt/N,[6],62/96
same,TTP Median,[6],288
same,TTP Evt/N,[7],95/127
same,TTP Median,[7],278
same,TTP Evt/N,[8],110/147
same,TTP Median,[8],273
same,TTP Evt/N,[9],131/198
same,TTP Median,[9],326
same,TTP Evt/N,[10],95/127
same,TTP Median,[10],278
same,TTP Evt/N,[11],110/147
same,TTP Median,[11],273
same,TTP Evt/N,[12],131/198
same,TTP Median,[12],326
same,TTP Evt/N,[13],95/127
same,TTP Median,[13],278
same,TTP Evt/N,[14],110/147
same,TTP Median,[14],273
same,TTP Evt/N,[15],131/198
same,TTP Median,[15],326
same,TTP Evt/N,[16],95/127
same,TTP Median,[16],278
same,TTP Evt/N,[17],110/147
same,TTP Median,[17],273
same,TTP Evt/N,[18],131/198
same,TTP Median,[18],326
same,TTP Evt/N,[19],95/127
same,TTP Median,[19],278
same,TTP Evt/N,[20],110/147
same,TTP Median,[20],273
same,TTP Evt/N,[21],131/198
same,TTP Median,[21],326
same,TTP Evt/N,[22],115/170
same,TTP Median,[22],334
same,TTP Evt/N,[23],8/10
same,TTP Median,[23],280
same,TTP Evt/N,[24],17/21
same,TTP Median,[24],275
same,TTP Evt/N,[25],95/127
same,TTP Median,[25],278
same,TTP Evt/N,[26],110/147
same,TTP Median,[26],273
same,TTP Evt/N,[27],131/198
same,TTP Median,[27],326
same,TTP Evt/N,[28],92/124
same,TTP Median,[28],279
same,TTP Evt/N,[29],126/189
same,TTP Median,[29],330
same,TTP Evt/N,[30],88/120
same,TTP Median,[30],279
same,TTP Evt/N,[31],104/140
same,TTP Median,[31],271
same,TTP Evt/N,[32],124/189
same,TTP Median,[32],330
same,TTP Evt/N,[33],95/127
same,TTP Median,[33],278
same,TTP Evt/N,[34],110/147
same,TTP Median,[34],273
same,TTP Evt/N,[35],131/198
same,TTP Median,[35],326
same,TTP Evt/N,[36],104/165
same,TTP Median,[36],381
same,TTP Evt/N,[37],95/127
same,TTP Median,[37],278
same,TTP Evt/N,[38],110/147
same,TTP Median,[38],273
same,TTP Evt/N,[39],131/198
same,TTP Median,[39],326
same,TTP Evt/N,[40],104/163
same,TTP Median,[40],381
same,TTP Evt/N,[41],95/126
same,TTP Median,[41],278
same,TTP Evt/N,[42],110/145
same,TTP Median,[42],271
same,TTP Evt/N,[43],131/196
same,TTP Median,[43],326
same,TTP Evt/N,[44],22/28
same,TTP Median,[44],273
same,TTP Evt/N,[45],79/119
same,TTP Median,[45],330
same,TTP Evt/N,[46],102/160
same,TTP Median,[46],379
same,TTP Evt/N,[47],93/123
same,TTP Median,[47],277
same,TTP Median,"PSMB9/V32I: C/C, High Tumor Burden, IRC Review",273
same,TTP Evt/N,[48],177/266
same,TTP Median,[48],345
same,TTP Evt/N,[49],129/192
same,TTP Median,[49],326
